“And” between values parts separate entries of the source, which are not always exact repeats. Identical values can stand only once.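 Each compound was tested at five concentrations against cells in 96-well plates for 48 hours. GI50 marks 50% less growth. TGI is the concentration that stops growth completely.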 Where a SMILES comes first, the peptide text is derived from it. The star is where a group is joined. Fmoc = O=C(OCC1c2ccccc2-c2ccccc21)*; OtBu = CC(C)(C)O*

Some test systems named below: BT-549 breast; CAKI-1 renal; EKVX NSCLC; HT29 colon; LOX IMVI melanoma; M14 melanoma; MDA-MB-435; MDA-N; NCI-H226 lung; OVCAR-3 ovarian; RXF 393 renal; SK-MEL-5 melanoma.
Holding throughout (assay): NCI tumour cell line growth inhibition, 48 h

In the case of `Cc1ccc(C)n1-c1ccccc1C1C=Cn2c(=O)nnc3c(OC(C)C)c(OC(C)C)c(O)c1c32` (stereo not drawn), the TGI was over 100 µM in the experiment with BT-549 breast; over 100 µM in the experiment on CAKI-1 renal; over 100 µM in the experiment with EKVX NSCLC; 43.6 µM in the experiment on HT29 colon; over 100 µM in the experiment on LOX IMVI melanoma; over 100 µM in the experiment on M14 melanoma. Moreover, the TGI with MDA-MB-435 was 58.5 µM; with MDA-N, over 100 µM; with NCI-H226 lung it was 53.6 µM; in the experiment on OVCAR-3 ovarian, over 100 µM; in the experiment on RXF 393 renal it was 77.3 µM; in the experiment with SK-MEL-5 melanoma, over 100 µM.

`CC(=O)NC1C(OC(C)C(=O)NC(C)C(=O)NC(CCC(=O)NCCCCCNc2ccc([N+](=O)[O-])c3[nH]c4ccccc4c(=O)c23)C(N)=O)C(O)C(CO)OC1(C)OCc1ccccc1` (stereo not drawn): the TGI in the experiment on BT-549 breast, with CAKI-1 renal, with EKVX NSCLC, in the experiment on HT29 colon, with LOX IMVI melanoma and in the experiment on M14 melanoma was over 100 µM throughout. In addition, the TGI in the experiment on MDA-MB-435, with MDA-N, in the experiment on NCI-H226 lung, in the experiment on OVCAR-3 ovarian, in the experiment on RXF 393 renal and in the experiment with SK-MEL-5 melanoma was over 100 µM in each case.

`CN=C1Nc2ccccc2C(=O)N2CSCC12` (stereo not drawn): the TGI in the experiment on BT-549 breast, in the experiment on CAKI-1 renal, in the experiment with EKVX NSCLC, with HT29 colon, in the experiment with LOX IMVI melanoma and in the experiment on M14 melanoma was over 100 µM in each case. The TGI with MDA-MB-435, with MDA-N, in the experiment on NCI-H226 lung, with OVCAR-3 ovarian, with RXF 393 renal and in the experiment with SK-MEL-5 melanoma was over 100 µM each time.

Take `CC1OC(OC2C(OC(=O)[C@]34CCC(C)(C)C[C@H]3C3=CC[C@@H]5[C@@]6(C)CC[C@H](OC7OC(C(=O)O)C(O)C(O)C7O)C(C)(C)[C@@H]6CC[C@@]5(C)[C@]3(C)C[C@H]4O)OCC(O)C2O)C(O)C(O)C1OC1OCC(O)C(O)C1O` (stereo partly drawn): the TGI is 26.9 µM and 29.8 µM in the experiment on BT-549 breast; 25.6 µM and 21.6 µM in the experiment with CAKI-1 renal; 21.3 µM and 13 µM in the experiment on EKVX NSCLC; 20.2 µM and 17 µM in the experiment with HT29 colon; 30.9 µM and 29.5 µM in the experiment on LOX IMVI melanoma; 28.1 µM and 21.6 µM with M14 melanoma. Besides, the TGI in the experiment on MDA-MB-435 was 30.3 µM and 18.2 µM; in the experiment with MDA-N, 27.3 µM and 23.5 µM; in the experiment on NCI-H226 lung, 19.2 µM and 25.9 µM; with OVCAR-3 ovarian, 32.2 µM and 29.1 µM; in the experiment on RXF 393 renal it was 35.4 µM and 31.6 µM; in the experiment on SK-MEL-5 melanoma it was 30.5 µM and 34.7 µM. The GI50 with EKVX NSCLC was 7.47 µM and 3.7 µM; with MDA-MB-435, 16 µM and 5.32 µM.

Take `N#CC12C(=O)NC(=O)C1(C#N)C1C=CC2CC1` (stereo not drawn): the TGI with BT-549 breast, with CAKI-1 renal, in the experiment on EKVX NSCLC, in the experiment with HT29 colon, with LOX IMVI melanoma and in the experiment on M14 melanoma was over 100 µM in each case. Also, the TGI in the experiment on MDA-MB-435, with MDA-N, in the experiment on NCI-H226 lung, in the experiment on OVCAR-3 ovarian, in the experiment on RXF 393 renal and in the experiment on SK-MEL-5 melanoma was over 100 µM each time.

Take `O=C(Nc1ccccc1)c1cc(S(=O)(=O)Nc2n[nH]c(=O)n2-c2ccccc2)c(S)cc1Cl`: the TGI in the experiment on BT-549 breast, with CAKI-1 renal, with EKVX NSCLC, with HT29 colon, with LOX IMVI melanoma and with M14 melanoma was over 100 µM throughout. The TGI in the experiment on MDA-MB-435, in the experiment with MDA-N, with NCI-H226 lung, in the experiment on OVCAR-3 ovarian, in the experiment on RXF 393 renal and in the experiment with SK-MEL-5 melanoma was over 100 µM throughout.

For `COc1cccc(/C=N/n2c(Cc3ccccc3)n[nH]c2=O)c1`, the TGI in the experiment on BT-549 breast, in the experiment on CAKI-1 renal, in the experiment on EKVX NSCLC, in the experiment with HT29 colon, in the experiment on LOX IMVI melanoma and with M14 melanoma was over 100 µM in each case. Besides, the TGI was over 100 µM with MDA-MB-435; over 100 µM in the experiment with MDA-N; over 25.6 µM in the experiment on NCI-H226 lung; over 100 µM with OVCAR-3 ovarian; over 100 µM in the experiment on RXF 393 renal; over 100 µM in the experiment on SK-MEL-5 melanoma.

On to `CC(C)C(NC(=O)OCC1c2ccccc2-c2ccccc21)C(=O)NC(CCC(=O)OC(C)(C)C)C(=O)OC(C)(C)C` (stereo not drawn) (Fmoc-Val-Glu(OtBu)-OtBu; configuration not given here), for which the TGI with BT-549 breast, in the experiment with CAKI-1 renal, with EKVX NSCLC, with HT29 colon, in the experiment with LOX IMVI melanoma and with M14 melanoma was over 100 µM each time. Besides, the TGI in the experiment with MDA-MB-435, in the experiment with MDA-N, in the experiment on NCI-H226 lung, in the experiment with OVCAR-3 ovarian, with RXF 393 renal and with SK-MEL-5 melanoma was over 100 µM in each case.

For the origin of these results see PubChem BioAssay (NCI).
